According to PMC12686126, “LL‐37 Inhibits TMPRSS2‐Mediated S2' Site Cleavage and SARS‐CoV‐2 Infection but Not Omicron Variants” (Cell Proliferation, 2025):

Experiments:
[1] = tested on: spike with N969K mutation; type: cell-based, SARS‐CoV‐2
[2] = tested on: SARS‐CoV‐2^N764K spike pseudovirus; type: cell-based
[3] = tested on: S2 subunit with N969K mutation; type: binding, SARS‐CoV‐2
[4] = tested on: SARS‐CoV‐2 spike S2 subunit; type: cell-based
[5] = tested on: S2 subunit with D796Y mutation; type: binding, SARS‐CoV‐2
[6] = tested on: spike with N764K mutation; type: cell-based, SARS‐CoV‐2
[7] = tested on: SARS‐CoV‐2 spike pseudovirus; type: cell-based
[8] = tested on: spike with D796Y mutation; type: cell-based, SARS‐CoV‐2
SARS‐CoV‐2 spike = type: cell-based
[9] = tested on: spike with N764K mutation; type: cell-based, SARS‐CoV‐2; remark: listed apart in the source

LLGDFFRKSKEKIGKEFKRIVQRIKDFLRNLVPRTES [LL‐37]
cell–cell fusion activity after LL‐37 pretreatment [1]: significantly lower cell–cell fusion activity
reduction of RLU induced by SARS‐CoV‐2^N764K [2]: did not significantly reduce
binding of S2 subunit to immobilised LL‐37 [3]: no difference or even enhanced binding
effect on polybasic cleavage site (S1/S2 boundary) [4]: excluded the effect of LL‐37 on the polybasic cleavage site
binding of S2 subunit to immobilised LL‐37 [5]: no difference or even enhanced binding
generation of S2' fragment [6]: did not significantly reduce
inhibition of RLU only caused by overexpression of TMPRSS2 [7]: about 70%
inhibition of pseudovirus entry into 293T‐A2T2 cells [7]: 52%
cell–cell fusion activity after LL‐37 pretreatment [8]: significantly lower cell–cell fusion activity
cell–cell fusion activity after LL‐37 pretreatment (SARS‐CoV‐2 spike): significantly lower cell–cell fusion activity
cell–cell fusion activity after LL‐37 pretreatment [9]: not the spike‐expressing cells with N764K mutation
